# What was measured:
# [1] = for MPV: C57BL/6 mice, i.p., schedule and doses of xenograft mice (RI-BPI 25, obatoclax 2, bortezomib 0.3 mg/kg/day, MLN4924 15 mg/kg every 12 h), vehicle 6.7
# Text: (§1) www.impactjournals.com/oncotarget/ Oncotarget, Supplementary Materials 2015
# Hematological and biochemical parameters of C57BL/6 mice treated with the schedule and doses of OCI-Ly1 and OCI-Ly7
# [2] = tested on: BCL6-dependent GCB-DLBCL cell lines; assay: Dose reduction index, MLN4924 or bortezomib after RI-BPI; type: cell-based; conditions: 8 BCL6-dependent GCB-DLBCL cell lines pre-treated with RI-BPI; all the cell lines tested
# Protocol: (§2) Cells were grown on U-bottom 96-well plates at respective concentrations sufficient to keep untreated cells under exponential growth by the time of read-out after treatment. Cells were exposed to each drug alone and to the combination of both drugs on the same plate in 48 h experiments. In sequential experiments, compounds were added 48 h apart in 72 h experiments. Cell viability was then determined using a fluorometric assay based on the resazurin reduction activity of the cells (Cell Titer Blue, Promega) and confirmed by trypan blue dye-exclusion (Sigma). Fluorescence was determined for controls and three replicates per treatment condition using the Synergy4 microplate reader (BioTek). Standard curves were obtained for each individual cell line with the cell count and fluorescence values. The number of viable cells was obtained using the least-squares regression method of the standard curve and by doing a ratiometric quantification of viable cells normalized to the respective controls. Experiments were conducted in triplicates. A cell killing effect was calculated as the 1 — normalized viability value.
# OCI-Ly7 xenografts = assay: OCI-Ly7 xenograft tumor growth; type: in vivo, SCID mice; conditions: p<0.05, T-test; for tumor growth at day 10 (AUC of tumor volume) vs vehicle: OCI-Ly7 xenografts in SCID mice, i.p. 10 days, RI-BPI 25 mg/kg/day, obatoclax 2 mg/kg/day, bortezomib 0.3 mg/kg/day, MLN4924 15 mg/kg every 12 h
# Protocol: (§3) For these experiments OCI-Ly1 and OCI-Ly7 cells were injected in the right flank of SCID mice (n = 80 for each cell line) and tumor growth was allowed until reaching a volume of 75 - 100 mm^3. […] Tumor growth was measured every day during the 10-day treatment course and the area under the curve (AUC) was calculated.
# (§4) Mouse xenografts: Animal procedures followed NIH protocols and were approved by the Animal Institute Committee of the Weill Cornell College or Medicine. SCID mice were subcutaneously injected on the right flank with GCB-DLBCL cell lines OCI-Ly1, OCI-Ly7 and SU-DHL6. Tumor volumes were monitored every day using electronic calipers (Fischer Scientific). When tumor reached a palpable size (around 75 to 100 mm^3) animals were randomized into 8 groups of 10 mice (or four groups of 5 mice for SU-DHL6 xenografts) and treated intraperitoneally accordingly to the schedule and doses shown in Figure 5A. In combinatorial treatments, mice were injected with RI-BPI (or vehicle) alone the first day followed by the combination the subsequent days. We used the area-under-the-curve (AUC) as the quantitative metric to represent the evolution of tumor volume over the time frame (10 – 13 days) of the experiment. The comparisons between treated and control mice were done using MANOVA followed by pair-wise comparison using the two-tailed T-test or Mann Whitney test for SU-DHL6 mice. Rat pharmacokinetic: Animal procedures followed NIH protocols and were conducted by Calvert Laboratories (study 0835RM44.001, Scott Township, PA). Briefly, male Sprague=Dawley rats (n = 3) were injected intravenously with 10 mg/kg of RI-BPI in sterile 50% water:50% saline and whole blood samples were collected through a jugular vein catheter at several time-points. Derived plasma samples were analyzed by HPLC-UV to determine RI-BPI concentration. Pharmacokinetic parameters were estimated using a non-compartmental approach consistent with the route of administration. The AUC that describe the total exposure to RI-BPI was estimated with the linear trapezoidal method and used to derive in vitro exposure doses.
# NOXA = NOXA immunoblot; type: cell-based; conditions: SU-DHL6 and OCI-Ly1 cells, 24 h
# Protocol: (§5) Cell pellets containing 5 × 10^6 cells were washed with ice-cold phosphate buffer saline and lysed with RIPA buffer (Tris-HCl 50mM, NaCl, 150 mM, NP-40 1%, Sodium Deoxylcholate 0.25%, SDS 0.1%), and fresh protease inhibitor cocktail (Roche) was added. Protein concentration in lysates was determined by BCA assay (Pierce) and 15 μg of protein sample were loaded on polyacrylamide electrophoresis pre-cast gels (BioRad). PVDF membranes were blocked with 5% non-fat dry milk (Blotting buffer, BioRad). Experiments were conducted at least in independent triplicates. Densitometry analysis was performed using ImageJ. We used the following primary antibodies: mouse anti-BCL6 (SC-7388, Santa Cruz), rabbit anti-BCL2 (SC-7382, Santa Cruz), rabbit anti-MCL1 (SC-819, Santa Cruz), rabbit anti-BIM (2933S, Cell Signaling Technologies), rabbit anti-BLC-XL (2764S, Cell Signaling Technologies), mouse anti-GAPDH (ab8245, Abcam), rabbit anti-NOXA (Santa Cruz), mouse anti-tubulin (T9026, Sigma-Aldrich), rabbit anti-BMF (ab181148, Abcam) and rabbit anti-caspase 9 (9502, Cell Signaling Technologies).
# NFkB (p50) = assay: NFkB DNA-binding activity assay (TransAM), OCI-Ly1 cells; type: cell-based; conditions: drug at GI50 for 24 h, only p50 changed
# OCI-Ly1 lymphoma tissues = assay: TUNEL assay of xenografted lymphoma tissues; type: in vivo, SCID mice; conditions: post-treatment OCI-Ly1 lymphoma tissues; Mann-Whitney p = 0.0004 (RI-BPI), 0.002 (obatoclax), 0.0008 (bortezomib)
# Protocol: DNA fragmentation coupled to the apoptotic response was detected in morphologically identifiable nuclei and apoptotic bodies present in formalin-fixed paraffin-embedded tumors by the TUNEL assay (ApopTag, Chemicon, Temecula, California) following the manufacturer's instructions. Tissue slides were pre-treated with 0.5% trypsin for 15 minutes (Zymed, San Francisco, California), to improve the exposure of DNA.
# NFkB (p50, p52, p65) = assay: NFkB DNA-binding activity assay (TransAM), HBL-1 cells; type: cell-based; conditions: HBL-1 (ABC-DLBCL) cells; drug at GI50 for 24 h; decreased almost completely
# Protocol: The DNA-binding capacity of NFkB (p50, p52, c-Rel, Rel-B and p65) was assayed by a plate-based assay (TransAM, Active Motif, Carlsbad) following the manufacturer instructions. Briefly, 5×10^6 GCB-DLBCL cells were treated with vehicle, bortezomib or MLN4924 and 10 μg of nuclear lysates were added to the wells containing pre-adsorbed NFkB consensus or competitor (mutant) oligonucleotides. HBL-1 cells (ABC-DLBCL) were used as positive controls for the assay. After incubation and washing, primary anti-NFkB antibody was added to each well, followed by HPR-anti-rabbit secondary antibody. After HRP substrate addition, absorbance was read at 450 nm with a reference wavelength of 655 nm (Synergy4, Biotek). In this assay the absorbance is directly proportional to the quantity of DNA-bound transcription factor present in the sample. Experiments were carried out in four replicates. Results were expressed as mean absorbance values with SEM to mutant probe. P-values were obtained by two-tailed T-test.
# OCI-Ly1 xenografts = assay: OCI-Ly1 xenograft tumor growth; type: in vivo; conditions: OCI-Ly1 xenografts in SCID mice, i.p. 10 days; RI-BPI 25 mg/kg/day, ABT-737 50 mg/kg/day, bortezomib 0.3 mg/kg/day, MLN4924 15 mg/kg every 12 h; p<0.05, T-test
# Protocol: as §3, §4
# SU-DHL4 = assay: Growth inhibition (GI50); type: cell-based; conditions: 48 h, resazurin reduction
# Protocol: as §2
# SC-1 = assay: Growth inhibition (GI50); type: cell-based; conditions: 48 h, resazurin reduction
# Protocol: as §2
# OCI-Ly1 cells = assay: Cell viability of OCI-Ly1 cells transfected with siRNA and treated with ABT-737; type: cell-based; conditions: ABT-737 250 nM for 72 h
# Protocol: DLBCL cells (3 × 10^6 to 5 × 10^6) were transfected with 1 micromolar siRNA for BCL6 (siBCL6-1 HSS100968 Life Technologies, siBCL6-2 SI00311129 Qiagen, siBCL6-3 SI0031143 Qiagen and siBCL6-4 SI0031150 Qiagen) or control (GFP targeting siRNA) using 96-well electroporation (SF buffer, Lonza).
# Cells were grown on U-bottom 96-well plates at respective concentrations sufficient to keep untreated cells under exponential growth by the time of read-out after treatment. Cells were exposed to each drug alone and to the combination of both drugs on the same plate in 48 h experiments. In sequential experiments, compounds were added 48 h apart in 72 h experiments. Cell viability was then determined using a fluorometric assay based on the resazurin reduction activity of the cells (Cell Titer Blue, Promega) and confirmed by trypan blue dye-exclusion (Sigma). Fluorescence was determined for controls and three replicates per treatment condition using the Synergy4 microplate reader (BioTek). Standard curves were obtained for each individual cell line with the cell count and fluorescence values. The number of viable cells was obtained using the least-squares regression method of the standard curve and by doing a ratiometric quantification of viable cells normalized to the respective controls. […] A cell killing effect was calculated as the 1 — normalized viability value.
# OCI-Ly4 = assay: Cell viability, RI-BPI, ABT-737 or combination; type: cell-based; conditions: BCL6-independent GCB-DLBCL cell line OCI-Ly4; 48 h; quintuplicates
# Protocol: as §2, with “Fluorescence was determined for controls and three replicates per treatment condition using the Synergy4 microplate reader (BioTek).” left out, “Experiments were conducted in triplicates.” left out
# as §1
# Supplementary Figure S2: Baseline features of DLBCL cells responsive and resistant to RI-BPI. A. Baseline features of
# RI-BPI sensitive (S) and resistant (R) groups of DLBCL cells according to cell-of-origin (COO) classification into GCB and ABC groups,
# the presence of BCL6 translocation (3q27) and BCL2 mutation (including amplification and translocation). […]
# [3] = tested on: BCL2 independent DLBCL cells; assay: Dose reduction index, sequential RI-BPI then BH3 mimetic; type: cell-based; conditions: pre-treated 48 h with RI-BPI, sequential 72 h; all but one (SU-DHL8) of the BCL2 independent DLBCL cell lines, including OCI-Ly7
# Protocol: as §2
# DoHH2 = assay: Growth inhibition (GI50); type: cell-based; conditions: 48 h, resazurin reduction
# Protocol: as §2
# SU-DHL6 = assay: Growth inhibition (GI50); type: cell-based; conditions: 48 h, resazurin reduction
# Protocol: as §2
# OCI-Ly7 = assay: Growth inhibition (GI50); type: cell-based; conditions: OCI-Ly7 (harbors a BCL2 deletion); Figure 2A, for ABT-737 also ref 14
# Protocol: as §2
# [4] = tested on: BCL6-dependent GCB-DLBCL cells; assay: Growth inhibition (GI50), panel of BCL6-dependent GCB-DLBCL cells; type: cell-based; conditions: 6 cell lines of the GCB-DLBCL panel; single agent
# Protocol: as §2
# BMF = BMF immunoblot; type: cell-based; conditions: SU-DHL6 cells
# Protocol: as §5
SMILES,MPV [1] [fL],enhancement of response to RI-BPI (dose reduction index) [2],tumor growth at day 10 (AUC of tumor volume) vs vehicle (OCI-Ly7 xenografts),NOXA protein levels (NOXA),percent of apoptotic nuclei (TUNEL) vs vehicle control (OCI-Ly1 lymphoma tissues),"NFκB activation (DNA binding of p50, p52 and p65) (NFkB (p50, p52, p65))",tumor growth at day 10 (AUC of tumor volume) vs vehicle (OCI-Ly1 xenografts),sensitivity as single agent (GI50) (SU-DHL4),sensitivity as single agent (GI50) (SC-1),sensitivity to BH3 mimetic after RI-BPI treatment (dose reduction index) [3],sensitivity as single agent (GI50) (DoHH2),sensitivity as single agent (GI50) (SU-DHL6),sensitivity as single agent (GI50) (OCI-Ly7),other results
CC(C)C[C@H](NC(=O)[C@H](Cc1ccccc1)NC(=O)c1cnccn1)B(O)O [bortezomib],6.6,favorable DRIs,significantly reduced,significant stabilization of NOXA,significantly increased,decreased,significantly reduced,resistant,resistant,,,,,"toxicity by body weight follow-up, plasma hematology and biochemistry parameters ([1]; mouse, in vivo): mild monocytosis and AST increase; single-agent efficacy compared between drugs (OCI-Ly7 xenografts; OCI-Ly7 xenografts): more effective than obatoclax; NFκB activation (DNA binding of p50) (NFkB (p50)): mild decrease"
CN(C)CC[C@H](CSc1ccccc1)Nc1ccc(S(=O)(=O)NC(=O)c2ccc(N3CCN(Cc4ccccc4-c4ccc(Cl)cc4)CC3)cc2)cc1[N+](=O)[O-] [ABT-737],,,,,,,significantly reduced,sensitive,sensitive,gained sensitivity,sensitive,sensitive,highly resistant,"loss of viability (OCI-Ly1 cells; OCI-Ly1 transfected with BCL6 siRNA, BCL6 knockdown alone 68%, p < 0.03, T-test): 97%; cells killed (loss of viability) (OCI-Ly1 cells; OCI-Ly1 transfected with control siRNA): 57%; sensitization to RI-BPI by pre-treatment with ABT-737 (OCI-Ly4): failed to sensitize"
NS(=O)(=O)OC[C@@H]1C[C@@H](n2ccc3c(N[C@H]4CCc5ccccc54)ncnc32)C[C@@H]1O [MLN4924],6.5,favorable DRIs,significantly reduced,significant stabilization of NOXA,,decreased,significantly reduced,,,,,,,GI50 [4]: > 100 nM; BMF protein levels (BMF): increased
COC1=CC(c2cc3ccccc3[nH]2)=N/C1=C\c1[nH]c(C)cc1C [obatoclax],6.4,,significantly reduced,,significantly increased,,,sensitive,sensitive,gained sensitivity,sensitive,sensitive,highly resistant,
